Data: patent publication US7037904B2, “Use of N-acetyl-D-glucosamine in the manufacture of pharmaceutical useful for suppressing side-effect of radiotherapy and chemotherapy” (Third Military Medical University, Chinese People's …, priority 2001, dated 2006)

Assays:
[1] = system: Proteus Mirabilis; experiment: Promoting wave test (bio-wave model); type: cell-based; details: final concentration of 0.5% on LB plate, 37° C.
Text: I. Promoting Wave Test of the Compound of Formula (I) 1.

[2] = in vivo
Text: • 1. acute toxicity test: including tests of administrating medicine by oral, Intravenous injection and maximum limit amount for administration; • 2. Ames test; • 3. micronucleus test of bone marrow cell of mouse; • 4. abnormal sexual test for the sperm of mouse; • 5. abnormal aberrance test for the chromosin of mouse's testis; • 6. chronic lethal test; • 7. subchronic toxicity (feed for 90 days) test; • 8. traditional aberrance-inducing test;

Compound: CC(=O)N[C@@H]1[C@@H](O)[C@H](O)[C@@H](CO)O[C@H]1O [compound of formula (I), N-acetyl-D-glucosamine]
- promoting wave function (concentric ring pattern compared with control) [1]: there were also many fine waves on each ring emerged
- acute test dosage relative to the injection dosage for human being [2]: 300 times
- dosage at which acute toxicosis reaction had not appeared [2]: more than 2 g/kg
